Laboratory results from patent publication US20230320984A1, “TOFACITINIB-CONTAINING ANHYDROUS ELASTOMER-BASED GEL FORMULATIONS” (Vyne Therapeutics Inc., priority 2022, published 2023).
Counter-ions that a name gives are not always drawn. Like-named read-outs stand apart in the source and are kept apart here. Blank lines part the entries; values can stand above or below the molecule they belong to.

What was measured:
[1] = test system: Hartley-derived albino guinea pigs; details: for test animals with erythema scores of 1 / test animals with erythema scores of 2: 0.1% w/v DNCB challenge
Method: A DNCB positive control group consisting of 10 DNCB test and 10 DNCB control guinea pigs are included in this study. The animals are treated as below with the DNCB test animals receiving 0.1% w/v DNCB in acetone and ethanol for induction and 0.1% and 0.05% w/v DNCB in acetone and ethanol for challenge.
The Test Article, placebo control, and the appropriate positive control articles are administered dermally for approximately 6 hours once on Days 0, 7, and 14 for inductions 1 to 3. The animals are reclipped on the day prior to dosing or induction to visualize the test sites clearly for grading. Following a 2-week rest period, a challenge (Day 28) is performed for Test Article group and placebo group on the same animal but on a different test site than the induction site. During the challenge phase the 20 Test Article group and 10 common challenge control guinea pigs are topically treated with Test Article and the 20 placebo control article and the same 10 common challenge control guinea pigs (separate test sites) are topically treated with placebo. Challenge responses for each of these groups are compared with those of the common challenge control animals. If challenge results are considered indefinite a rechallenge is conducted.
On the day prior to the first DNCB induction or dose administration (Day −1), the hair is removed from the left side of the test animals with a small animal clipper. Care is taken to avoid abrading the skin during the clipping procedures. On the day following clipping (Day 0), chambers containing the appropriate material are applied to the clipped area of the test animals and DNCB test animals. For the induction and challenge phases, a dose of 0.3 mL (or maximum volume for viscous materials) is placed on a 25 mm Hill Top Chamber® backed by adhesive tape (occlusive patch). The chambers are then applied to the clipped surface as quickly as possible.
The application site for induction is moved when irritation persists from a previous induction exposure (to ensure the test article is not dosed on compromised skin) but remains on the left side of the animal.
On the day prior to challenge dose administration, the test, placebo control article, challenge control, DNCB test, and DNCB challenge control animals are weighed, and the hair is removed from the right side of the animals.

[2] = test system: Human skin from cosmetic reduction surgery; assay: Skin penetration (IVPT), vertical diffusion cell (Method A); assay type: in vitro ADME
Method: The skin is dosed with approx. 6 mg of formulation to achieve a dose of ˜ 10 mg/cm2. Receptor solution is collected at pre-determined intervals over the course of 24 hours and analyzed using a liquid chromatography with tandem mass spectrometry (LC-MS/MS) analytical method.
Following 24 hours, the residual formulation is removed from the surface of the skin. The skin surface is tape-stripped up to five times to remove residual formulation and the top of the skin surface layers (Stratum Corneum). The epidermis is then heat-separated from the dermis. The active agent is extracted from the skin layers and the amount of active agent delivered to the epidermis and dermis is then determined by LC-MS/MS.

[3] = AD murine model: body weight
Method: (§1) Atopic Dermatitis is induced by once daily application for 38 days of 100 μl of 0.5% 2,4-dinitrochlorobenzene (DNCB) solution onto the shaved back skin of mice. Starting on day 32, test formulations are administered once daily onto the shaved back skin of mice in addition to DNCB. Several measurements are taken at different time points:
Daily from Day 32: Body weight, mortality, behaviour (scratching), general condition, AD index.

[4] = cited from earlier work
[5] = Stability of tofacitinib citrate solution in 50 mM citrate buffer at different pH, 60° C.; assay type: physicochemical; parameters: unit not given here
Excerpt: In one or more embodiments the pH, is about 4, about 4.1, about 4.2, about 4.3, about 4.4, about 4.5, about 4.6, about 4.7, about 4.8, about 4.9 or about 5.

[6] = Solubility test of tofacitinib citrate in solvents and excipients (Method D); assay type: physicochemical
Method: Saturated solutions of tofacitinib citrate in various solvents are generated by agitating (stirring) an excess amount of solid crystalline tofacitinib citrate in the corresponding solvent at ambient conditions. […] An additional analysis is performed after 48 hours of agitation to confirm the determined saturated concentration.

[7] = test system: Atopic Dermatitis induced by 2,4-dinitrochlorobenzene (DNCB); assay: AD murine model: Atopic Dermatitis Index (ADI, mADI) (Method C); assay type: in vivo; details: DNCB induced mice
Excerpt: In the mouse model the positive control is observed to cause a marked weight loss and thinning of the skin and this can be perceived to mask the scoring observed with the other parameters and omitting it may on one level provide a clearer representation of the treatment potential of the combination since no marked weight loss or thinning is noted other than with the positive control.
The presence of erythema/haemorrhage is scored based on the following scoring grid: • 0=no or no more erythema/haemorrhage on the skin, • 1=weak erythema/haemorrhage on the skin, • 2=moderate erythema/haemorrhage on the skin, • 3=severe erythema/haemorrhage on the skin.
The presence of edema/thickening is scored based on the following scoring grid: • 0=no or no more edema/thickening of the skin, • 1=weak edema/thickening of the skin, • 2=moderate edema/thickening of the skin, • 3=severe edema/thickening of the skin.
The presence of excoriation/erosion is scored based on the following scoring grid: • 0=no or no more excoriation/erosion of the skin, • 1=weak excoriation/erosion of the skin, • 2=moderate excoriation/erosion of the skin, • 3=severe excoriation/erosion of the skin.
The presence of dryness/peeling is scored based on the following scoring grid: • 0=no or no more dryness/peeling of the skin, • 1=weak dryness/peeling of the skin, • 2=moderate dryness/peeling of the skin, • 3=severe dryness/peeling of the skin.
Several measurements are taken at different time points: […]

clinical = details: human, in vivo
Method: (§2) Values below the limit of concentration are omitted from determination of geometric mean and geometric % CV.
(§3) Frozen samples are thawed at room temperature and homogenized by vortexing. 10 μL of ISTD2 and 104, of Methanol/Water (50/50, v/v) to each sample (exception blank samples for which 20.0 μL Methanol/Water (50/50, v/v) is added) is addeded to Eppendorf tubes each containing 100 μL sample. 300 μL of acetonitrile is added to each sample and vortexed for additional 10 sec. Next samples are centrifuged for 10 min at 14000 rpm at 5° C. 310 μL of the supernatant is transferred into a 96-DWP. Samples are evaporated at approximately 40° C. (turbovap 96) under N2. 100 μL mobile phase A (see table below) is added to each sample and the 96-DWP is sealed with heatsealing foil and shaken for 5 min on a Vortex-shaker and then centrifuged for 5 min with settings 4500 rpm at 5° C. The 96-DWP is transferred to the autosampler and then the samples are diluted by 100-fold, first by adding 10 μl of sample in 904, of blank plasma/water (dilution 1/10) and then by pipetting 104, of sample diluted 10 fold in 904, of blank plasma (dilution 1/100). The diluted samples are vortexed for 5 sec and processed.
(§4) After, the analyte is separated on a Luna Omega Polar C18 column (50×2.1 mm, 3 μm) with gradient elution of a mobile phase composed of water/acetonitrile/ammonium formate/formic acid it is analyzed using electrospray ionization (ESI) tandem mass spectrometry (MS/MS) in the multiple reaction monitoring mode (MRM).

[8] = human, in vivo
Method: as §2, §3, §4

[9] = Chemical stability of formulations (Method H); assay type: physicochemical; details: gel with Tofacitinib Citrate 1.0% and Fingolimod HCl 0.01% (Table 38)
Method: Where another active agent such as fingolimod is present in the formulations the samples are analyzed for that active agent and its degradation products by HPLC. […] The gradient elution is employed.

[10] = test system: Atopic Dermatitis induced by DNCB; parameters: species or system mice; details: mouse, in vivo
Method: as §1
Day 39: Histological analysis of skin samples, microscopic scoring of AD, blood assays, assay for pro-inflammatory cytokines IL-1β, IL-6, IL-18, TNF-α, IgE, and histamine assays.

[11] = Ex 43 Table 43 (fingolimod and tofacitinib)
[12] = Ex 42 Table 42 (fingolimod alone)

Molecule: O=[N+]([O-])c1ccc(Cl)c([N+](=O)[O-])c1 [DNCB, 2,4-dinitrochlorobenzene]
test animals with dermal scores of 1 ([1]; 0.05% w/v DNCB challenge, 24-hour scoring interval): 4/10
test animals with erythema scores of 1 ([1]; 24-hour scoring interval): 5/10
test animals with erythema scores of 2 ([1]; 24-hour scoring interval): 5/10
test animals with erythema scores of 1 ([1]; 48-hour scoring interval): 6/10
test animals with erythema scores of 2 ([1]; 48-hour scoring interval): 4/10
Group mean dermal score at challenge ([1]; challenge with 0.05% w/v DNCB in acetone and ethanol, control animals 0.25): 0.6
Group mean dermal score at challenge ([1]; challenge with 0.1% w/v DNCB in acetone and ethanol, control animals 0.375): 1.45

Molecule: CCCCCCCCc1ccc(CCC(N)(CO)CO)cc1 [Fingolimod HCl 0.011%]
Dermis concentration, ng (based on the Mean) [2, 11]: 14.82 ng
Epidermis concentration, ng (based on the Mean) [2, 11]: 16.21 ng

Molecule: CCCCCCCCc1ccc(CCC(N)(CO)CO)cc1 [Fingolimod HCl 0.022%]
Dermis concentration, ng (based on the Mean) [2, 12]: 49.16 ng
Epidermis concentration, ng (based on the Mean) [2, 12]: 37.5 ng

Molecule: CCCCCCCCc1ccc(CCC(N)(CO)CO)cc1 [Fingolimod hydrochloride]
tolerability (body weight) ([3]; fingolimod AD study, 0.1% w/w and 1% w/w): not well tolerated
solubility ([4]; ethanol): soluble
solubility ([4]; range from pH 1.2-4.5): freely soluble
solubility ([4]; water and methanol): freely soluble

Molecule: C[C@@H]1CCN(C(=O)CC#N)C[C@@H]1N(C)c1ncnc2[nH]ccc12 [Tofacitinib citrate]
Imp B ([5]; pH 4.5, 2 w): 0.10
RRT 1.29 ([5]; pH 5, 1 w): 0.09
RRT 1.42 ([5]; pH 5, 1 w): 0.14
RRT 1.29 ([5]; pH 5, 2 w): 0.08
Solubility of TOF Citrate ([6]; in 0.02% HCl): 4.06 mg/g
Solubility of TOF Citrate ([6]; in 0.05% NaOH): ND (degraded)
Solubility of TOF Citrate ([6]; in Benzyl Alcohol): 0.81 mg/g
Solubility of TOF Citrate ([6]; in DMSO): >150 mg/g
Solubility of TOF Citrate ([6]; in Diisopropyl adipate): 0.02 mg/g
Solubility of TOF Citrate ([6]; in Dimethyl isosorbate): 1.27 mg/g
Solubility of TOF Citrate ([6]; in Ethanol): 0.61 mg/g
Solubility of TOF Citrate ([6]; in Glycerin): 0.97 mg/g
Solubility of TOF Citrate ([6]; in Hexylene Glycol): 0.25 mg/g
Solubility of TOF Citrate ([6]; in Isopropyl Alcohol): 0.24 mg/g
Solubility of TOF Citrate ([6]; in Isopropyl myristate): <0.02 mg/g
Solubility of TOF Citrate ([6]; in MCT oil (Caprylic/capric triglycerides)): <0.01 mg/g
Solubility of TOF Citrate ([6]; in Oleyl alcohol): 0.09 mg/g
Solubility of TOF Citrate ([6]; in PPG-11 Stearyl ether): 0.02 mg/g
Solubility of TOF Citrate ([6]; in Polyethylene Glycol 200): 5.16 mg/g
Solubility of TOF Citrate ([6]; in Polyethylene Glycol 400): 6.96 mg/g
Solubility of TOF Citrate ([6]; in Propylene Glycol): 1.70 mg/g
Solubility of TOF Citrate ([6]; in Transcutol): 2.01 mg/g
Solubility of TOF Citrate ([6]; in Water): 2.77 mg/g

Molecule: CC1(C)O[C@@H]2C[C@H]3[C@@H]4CCC5=CC(=O)C=C[C@]5(C)[C@@]4(F)[C@@H](O)C[C@]3(C)[C@]2(C(=O)CO)O1 [Triamcinolone acetonide]
Body weight: Weight D32 ([3]; DNCB induced mice, Example 41, D32 (treatment start), mean): 18.31
Body weight: Weight D39 ([3]; DNCB induced mice, Example 41, D39, mean): 15.66
Mean Body Weight Change d39 − d32 ([3]; DNCB induced mice, Example 41, (+) weight gain, (−) weight loss): −2.65
ADI breakdown: Dryness-Peeling D39 ([7]; Example 41, D39): 0.88
ADI breakdown: Edema-Thickening D39 ([7]; Example 41, D39): 0.00
ADI breakdown: Erythema-Haemorrhage D39 ([7]; Example 41, D39): 0.00
ADI breakdown: Excoriation-Erosion D39 ([7]; Example 41, D39): 0.00

Molecule: C[C@@H]1CCN(C(=O)CC#N)C[C@@H]1N(C)c1ncnc2[nH]ccc12 [tofacitinib]
AUC(0-t) (clinical; AUC(0-12) Median): 1.97 ng·h/mL
AUC(0-t) (clinical; AUC(0-24) Geomean): 3.21 ng·h/mL
AUC(0-t) (clinical; AUC(0-24) Mean): 4.03 ng·h/mL
AUC(0-t) (clinical; AUC(0-24) Median): 3.14 ng·h/mL
Tmax (clinical; Tmax Geomean): 5.05 h
Tmax (clinical; Tmax Median): 6 h
AUC(0-12) Median [8]: 1.056 ng·h/mL
Tmax Geomean [8]: 3.00 h
Tmax Median [8]: 3.00 h
Assay of Tofacitinib, % LC ([9]; 2 months at 40° C.): 99.2 % LC
Assay of Tofacitinib, % LC ([9]; 2 months at 50° C.): 98.6 % LC
Assay of Tofacitinib, % LC ([9]; 3 weeks at 5° C.): 99.3 % LC
Assay of Tofacitinib, % LC ([9]; 3 weeks at 50° C.): 99.1 % LC

Molecule: CC1(C)O[C@@H]2C[C@H]3[C@@H]4CCC5=CC(=O)C=C[C@]5(C)[C@@]4(F)[C@@H](O)C[C@]3(C)[C@]2(C(=O)CO)O1 [triamcinolone acetonide]
AD Index, Mean ADI values D 39 ([7]; combination study (Example 41), D 39): 0.88

skin thinner than vehicle-treated normal skin [10]: about 0.8 fold
Molecule: Triamcinolone
Body weight D39, Mean ([3]; mouse, in vivo): 17.7 g
Body weight D39 mean ([3]; mouse, in vivo): 17.1 g
Mean Body Weight Change d39 − d32 ([3]; mouse, in vivo): −2.80
